# Results taken from US20260364168A1, “USE OF PROTEIN KINASE C (PKC) ACTIVATING COMPOUNDS AS AN ADJUVANT” (priority 2022, published 2026).
# Where two headings read alike, the source gives them in different places.
# Assays:
# NFκB [1] = experiment: NFκB luciferase reporter gene assay in HeLa-NFκB luciferase reporter cell line; type: cell-based; conditions: 16 h, 37 °C, luciferase/CTG normalized; read-out: NFκB-luc HeLa cells EC50
# Method: The PKC activator compounds were evaluated for their effect on NFκB expression using a luciferase reporter gene expression system. (The indicators “K-101,” “K101” and “K-101A” may be used interchangeably in this disclosure and appended figures).
# A HeLa-NFκB luciferase reporter cell line (Wuxi Biology) was used to assess a group of PKC activator compounds for their ability to activate NFκB-driven transcription. Two sets of cells at 20000 cells/well were plated, grown overnight, and then treated for 16 h at 37 °C with DMSO, 6 doses of each compound, or TNF-α (final concentration of 10 ng/mL, positive control) in triplicates. One set of cells was assayed for luciferase activity (Promega, Cat #E1500) and the other set was assayed to determine the number of viable cells (for cell number normalization) using CellTiter-Glo (CTG) kit (Promega, Cat #G7570) according to manufacture's procedures. Normalized data (luciferase value/CTG value) were analyzed using GraphPad Prism5 to calculate EC50 for each compound (see Table 3).
# mouse splenocytes = experiment: IFN-γ ELISpot in mouse splenocytes; type: cell-based, C57BL/6J mice
# Method: Production of IFN-γ in response to infection or other stimuli is a hallmark of innate and adaptive immunity. To measure the effect of direct immune stimulation, freshly isolated splenocytes from three C57BL/6J mice were seeded in ELISpot plates pre-coated with anti-IFN-γ antibody (Mabtech, #3321-4AST-2) at 1 million splenocytes per well in OptiVitro® T Cell Serum-free Medium (Excellbio, Cat #TE000-N021). […] Detection of the IFN-γ spot-forming cells was performed according to the manufacture's protocol. Briefly, cells were removed from the ELISpot plates. After washing with PBS, the ELISpot plates were incubated with […] of the R4-6A2-biotin detection antibody for 2 hours at room temperature (RT) and then with streptavidin-ALP (1:1000) at RT for 1 hour. BCIP/NBT chromogen substrate solution was added to the plates until distinct spots emerged. The spots (IFN-γ-secreting cells) were counted using an AID ELISPOT reader.
# human PBMC cells = experiment: cytokine/chemokine gene expression (TaqMan) in human PBMC; conditions: 4 h
# Method: Materials and methods: 100 million frozen human PBMC cells were purchased from Allcells (100 million/vial). The cells were thawed and recovered for one day before 1.5-1.8 million cells in 900 μl RPMI1640 with 10% heat-inactivated FBS were seeded in each well of 24-well plates. Various compounds in DMSO stock (500×) were diluted 50-fold with the same media to make 10× compound stock for most compounds. 1 μL of 5 mg/mL PMA was diluted to 99 μL of the media to make 50 μg/mL PMA. For PMA with ionomycin treatment condition, 1.5 μL of 50 μg/mL PMA and 3 μL of 500 μg/mL ionomycin were added to 145.5 μL of the media to make 10× compound stock. Sources of the compounds are as follows: PMA from Abcam (Abcam #ab120297); Ionomycin from Sigma (Sigma #I0634); Resiquimod from Sellect Chem. (Selleckchem #S8133); and LPS from Sigma (Sigma #L6143).
# Each treatment condition was performed in duplicates. After treatment, mRNA was extracted from cells and samples from duplicates were combined for TaqMan gene expression assays (ThermoFisher) in triplicates. Expression of 19 genes (IL-1β, IL-2, IL-4, IL-6, IL-8, IL-10, IL-13, IL-18, IL-12p70/IL-12A, IL-12p40/IL-12B, IFN-α, IFN-γ, GM-CSF/CSF2, CCL2/MCP-1, MIP1a/CCL3, TNF-α, MX1, OAS1, ISG15) along with two housekeeping gene controls, 18S and GAPDH, was determined. Target gene expression in each sample was determined by relative quantification (RQ) using the comparative Ct (ΔΔCT) method. This method measures the Ct difference (ΔCT) between target gene and the housekeeping genes (18S & GAPDH), then compares the ΔCT values of treated samples to DMSO-treated control samples. The mean ΔCT value of the DMSO-treated control from two independent DMSO-treated control samples was used. The relative expression level of target gene was calculated by using the equation:
# relative expression=2^−ΔΔCT
# DC cells = conditions: Yan et al. 2010; cited from earlier work
# [2] = system: antigen-specific T cell responses; conditions: Yan et al. 2010; cited from earlier work
# NFκB [3] = conditions: in vitro, TLR5-dependent and -independent; Oh et al. 2014; cited from earlier work
# [4] = system: antigen-specific antibody as well as T cell responses; conditions: in vivo; Oh et al. 2014; cited from earlier work
# [5] = 0.03 μM, vs DMSO, 240 min, 0.03 µM
# [6] = 0.10 μM, vs DMSO, 240 min, 0.1 µM
structure (smiles),measurement,setting,value
CC1=C[C@H]2[C@@]3(O)[C@H](C)C[C@]4(OC(=O)C(N)CCCCCCc5ccccc5)[C@H]([C@@H]3C=C(CO)C[C@]2(O)C1=O)C4(C)C (some centres unmarked),EC50,NFκB [1],10 to 30 nM
same,IFN-γ secreting cells/million splenocytes,"mouse splenocytes; 60 nM, 24 h, Mouse 1",245 cells/million splenocytes
same,IFN-γ secreting cells/million splenocytes,"mouse splenocytes; 60 nM, 24 h, Mouse 2",137 cells/million splenocytes
same,IFN-γ secreting cells/million splenocytes,"mouse splenocytes; 60 nM, 24 h, Mouse 3",110 cells/million splenocytes
same,IFN-γ secreting cells/million splenocytes,"mouse splenocytes; 200 nM, 24 h, Mouse 1",saturated
same,IFN-γ secreting cells/million splenocytes,"mouse splenocytes; 200 nM, 24 h, Mouse 2",saturated
same,IFN-γ secreting cells/million splenocytes,"mouse splenocytes; 200 nM, 24 h, Mouse 3",saturated
same,dose-response of IFN-γ production,"mouse splenocytes; 60 and 200 nM, in words",a trend of dose-response
same,minimal effective concentration,"mouse splenocytes; Splenocyte, mouse splenocytes, 24 h, read-out: concentration (as low as) at which IFN-γ production was stimulated",0.06 µM
same,ISG15 gene relative expression,"human PBMC cells; 0.03 μM, vs DMSO",0.97
same,MX1 gene relative expression,"human PBMC cells; 0.03 μM, vs DMSO",0.65
same,CCL2 gene relative expression,human PBMC cells; [5],4.55
same,GM-CSF gene relative expression,human PBMC cells; [5],1.89
same,IFN-α gene relative expression,human PBMC cells; [5],1.66
same,IFNγ gene relative expression,human PBMC cells; [5],1.62
same,IL-1β gene relative expression,human PBMC cells; [5],0.54
same,IL-2 gene relative expression,human PBMC cells; [5],1.71
same,IL-6 gene relative expression,human PBMC cells; [5],0.74
same,IL-8 gene relative expression,human PBMC cells; [5],0.80
same,IL-10 gene relative expression,human PBMC cells; [5],1.27
same,IL-12p40 gene relative expression,human PBMC cells; [5],0.74
same,IL-12p70 gene relative expression,human PBMC cells; [5],1.02
same,IL-13 gene relative expression,human PBMC cells; [5],0.40
same,IL-18 gene relative expression,human PBMC cells; [5],0.47
same,MIP1a (CCL3) gene relative expression,human PBMC cells; [5],1.86
same,OAS1 gene relative expression,human PBMC cells; [5],0.64
same,TNF-α gene relative expression,human PBMC cells; [5],1.38
same,CCL2 gene relative expression,human PBMC cells; [6],3.12
same,GM-CSF gene relative expression,human PBMC cells; [6],7.74
same,IFN-α gene relative expression,human PBMC cells; [6],0.73
same,IFNγ gene relative expression,human PBMC cells; [6],3.47
same,IL-1β gene relative expression,human PBMC cells; [6],1.58
same,IL-2 gene relative expression,human PBMC cells; [6],7.65
same,IL-4 gene relative expression,human PBMC cells; [6],1.61
same,IL-8 gene relative expression,human PBMC cells; [6],0.53
same,IL-10 gene relative expression,human PBMC cells; [6],0.48
same,IL-12p70 gene relative expression,human PBMC cells; [6],0.93
same,IL-13 gene relative expression,human PBMC cells; [6],47.45
same,IL-18 gene relative expression,human PBMC cells; [6],0.09
same,ISG15 gene relative expression,human PBMC cells; [6],1.16
same,MIP1a (CCL3) gene relative expression,human PBMC cells; [6],2.39
same,MX1 gene relative expression,human PBMC cells; [6],0.72
same,OAS1 gene relative expression,human PBMC cells; [6],0.55
same,TNF-α gene relative expression,human PBMC cells; [6],4.04
same,fold induction at 0.3 µM,"human PBMC cells; Homo sapiens, PBMC, read-out: CCL2 gene relative expression, 0.3 μM, 4 h, vs DMSO",2.09
same,fold induction at 0.3 µM,"human PBMC cells; Homo sapiens, PBMC, read-out: GM-CSF gene relative expression, 0.3 μM, 4 h, vs DMSO",10.5
same,fold induction at 0.3 µM,"human PBMC cells; Homo sapiens, PBMC, read-out: IFN-α gene relative expression, 0.3 μM, 4 h, vs DMSO",0.95
same,fold induction at 0.3 µM,"human PBMC cells; Homo sapiens, PBMC, read-out: IFNγ gene relative expression, 0.3 μM, 4 h, vs DMSO",18.6
same,fold induction at 0.3 µM,"human PBMC cells; Homo sapiens, PBMC, read-out: IL-1β gene relative expression, 0.3 μM, 4 h, vs DMSO",1.53
same,fold induction at 0.3 µM,"human PBMC cells; Homo sapiens, PBMC, read-out: IL-2 gene relative expression, 0.3 μM, 4 h, vs DMSO",3.41
same,fold induction at 0.3 µM,"human PBMC cells; Homo sapiens, PBMC, read-out: IL-4 gene relative expression, 0.3 μM, 4 h, vs DMSO",2.57
same,fold induction at 0.3 µM,"human PBMC cells; Homo sapiens, PBMC, read-out: IL-6 gene relative expression, 0.3 μM, 4 h, vs DMSO",4.85
same,fold induction at 0.3 µM,"human PBMC cells; Homo sapiens, PBMC, read-out: IL-8 gene relative expression, 0.3 μM, 4 h, vs DMSO",0.59
same,fold induction at 0.3 µM,"human PBMC cells; Homo sapiens, PBMC, read-out: IL-10 gene relative expression, 0.3 μM, 4 h, vs DMSO",0.06
same,fold induction at 0.1 µM,"human PBMC cells; Homo sapiens, PBMC, read-out: IL-12p40 gene relative expression, 0.10 μM, 4 h, vs DMSO",0.45
same,fold induction at 0.3 µM,"human PBMC cells; Homo sapiens, PBMC, read-out: IL-12p40 gene relative expression, 0.3 μM, 4 h, vs DMSO",0.69
same,fold induction at 0.3 µM,"human PBMC cells; Homo sapiens, PBMC, read-out: IL-12p70 gene relative expression, 0.3 μM, 4 h, vs DMSO",0.61
same,fold induction at 0.3 µM,"human PBMC cells; Homo sapiens, PBMC, read-out: IL-13 gene relative expression, 0.3 μM, 4 h, vs DMSO",78.9
same,fold induction at 0.3 µM,"human PBMC cells; Homo sapiens, PBMC, read-out: IL-18 gene relative expression, 0.3 μM, 4 h, vs DMSO",0.04
same,fold induction at 0.3 µM,"human PBMC cells; Homo sapiens, PBMC, read-out: ISG15 gene relative expression, 0.3 μM, 4 h, vs DMSO",1.14
same,fold induction at 0.3 µM,"human PBMC cells; Homo sapiens, PBMC, read-out: MIP1a (CCL3) gene relative expression, 0.3 μM, 4 h, vs DMSO",3.37
same,fold induction at 0.3 µM,"human PBMC cells; Homo sapiens, PBMC, read-out: MX1 gene relative expression, 0.3 μM, 4 h, vs DMSO",0.57
same,fold induction at 0.3 µM,"human PBMC cells; Homo sapiens, PBMC, read-out: OAS1 gene relative expression, 0.3 μM, 4 h, vs DMSO",0.42
same,fold induction at 0.3 µM,"human PBMC cells; Homo sapiens, PBMC, read-out: TNF-α gene relative expression, 0.3 μM, 4 h, vs DMSO",4.13
CCC/C=C/C=C/C(=O)O[C@H]1/C(=C/C(=O)OC)C[C@H]2C[C@H]([C@@H](C)O)OC(=O)C[C@H](O)C[C@@H]3C[C@H](OC(C)=O)C(C)(C)[C@](O)(C[C@@H]4C/C(=C/C(=O)OC)C[C@H](/C=C/C(C)(C)[C@]1(O)O2)O4)O3 [Bryostatin],chemokine expression in DC cells,DC cells,induces chemokine expression in DC cells
same,antigen-specific T cell responses from a peptide-based vaccine,[2],stimulates an antigen-specific T cell responses
"CCCCCCCCCCCCCC(=O)O[C@@H]1[C@@H](C)[C@@]2(O)[C@@H](C=C(CO)C[C@]3(O)C(=O)C(C)=C[C@@H]23)[C@@H]2C(C)(C)[C@]12OC(C)=O [PMA, Phorbol 12-myristate 13-acetate]",PKC-dependent NFκB activation,NFκB [3],induce PKC-dependent NFκB activation
same,antigen-specific antibody as well as T cell responses,[4],boosts antigen-specific antibody as well as T cell responses in vivo
